Reference: ChEMBL document CHEMBL3997820, “Synthesis and evaluation of anticonvulsant properties of new N-Mannich bases derived from pyrrolidine-2,5-dione and its 3-methyl-, 3-isopropyl, and 3-benzhydryl analogs” (Bioorg Med Chem Lett, 2017)
Activity calls are given as the source filed them. No cut-off for these calls is given here.

Tests used:
Mus musculus [1] = assay: Anticonvulsant activity in ip dosed albino CD1 mouse assessed as protection against 32 mA current-induced seizure by 6 Hz psychomotor test; type: functional
Mus musculus [2] = assay: Anticonvulsant in ip dosed CD1 mouse assessed as time to peak effect; type: functional
Mus musculus [3] = assay: Anticonvulsant activity in albino CD1 mouse assessed as protection against maximal electroshock-induced seizures at 300 mg/kg, ip measured after 4 hrs; type: functional, organism-based
Mus musculus [4] = assay: Neurotoxicity in albino CD1 mouse assessed as motor impairment at 300 mg/kg, ip measured after 4 hrs by rotarod test; type: toxicity, organism-based; conditions: in vivo
Mus musculus [5] = assay: Neurotoxicity in albino CD1 mouse assessed as motor impairment at 300 mg/kg, ip measured after 0.5 hrs by rotarod test; type: toxicity, organism-based; conditions: in vivo
Mus musculus [6] = assay: Anticonvulsant activity in albino CD1 mouse assessed as protection against subcutaneous pentylenetetrazole-induced seizures at 300 mg/kg, ip measured after 4 hrs; type: functional, organism-based
Mus musculus [7] = assay: Anticonvulsant activity in albino CD1 mouse assessed as protection against subcutaneous pentylenetetrazole-induced seizures at 300 mg/kg, ip measured after 0.5 hrs; type: functional, organism-based
Mus musculus [8] = assay: Anticonvulsant activity in albino CD1 mouse assessed as protection against maximal electroshock-induced seizures at 300 mg/kg, ip measured after 0.5 hrs; type: functional, organism-based
Mus musculus [9] = assay: Anticonvulsant activity in ip dosed albino CD1 mouse assessed as protection against subcutaneous pentylenetetrazole-induced seizures; type: functional
Mus musculus [10] = assay: Anticonvulsant activity in ip dosed albino CD1 mouse assessed as minimum dose required to protect subcutaneous pentylenetetrazole-induced seizures in half and more mouse measured after 4 hrs; type: functional
[11] = Neurotoxicity in ip dosed albino CD1 mouse assessed as motor impairment by rotarod test; type: toxicity, organism-based; conditions: in vivo
Mus musculus [12] = assay: Protection index, ratio of TD50 for motor impairment in ip dosed albino CD1 mouse to ED50 for protection against subcutaneous pentylenetetrazole-induced seizures in ip dosed albino CD1 mouse
Mus musculus [13] = assay: Anticonvulsant activity in ip dosed albino CD1 mouse assessed as minimum dose required to protect subcutaneous pentylenetetrazole-induced seizures in half and more mouse measured after 0.5 hrs; type: functional
Mus musculus [14] = assay: Anticonvulsant activity in albino CD1 mouse assessed as protection against 32 mA current-induced seizure at 100 mg/kg, ip after 4 hrs by 6 Hz psychomotor test; type: functional, organism-based
Mus musculus [15] = assay: Anticonvulsant activity in albino CD1 mouse assessed as protection against 32 mA current-induced seizure at 100 mg/kg, ip after 0.5 hrs by 6 Hz psychomotor test; type: functional
Mus musculus [16] = assay: Neurotoxicity in ip dosed albino CD1 mouse assessed as minimum dose required to induce motor impairment in half and more mouse measured after 0.5 hrs by rotarod test; type: toxicity, organism-based; conditions: in vivo
Mus musculus [17] = assay: Anticonvulsant activity in ip dosed albino CD1 mouse assessed as minimum dose required to protect maximal electroshock-induced seizures in half and more mouse measured after 4 hrs; type: functional
Mus musculus [18] = assay: Anticonvulsant activity in ip dosed albino CD1 mouse assessed as minimum dose required to protect maximal electroshock-induced seizures in half and more mouse measured after 0.5 hrs; type: functional
Mus musculus [19] = assay: Protection index, ratio of TD50 for motor impairment in ip dosed albino CD1 mouse to ED50 for protection against 32 mA current-induced seizure in ip dosed albino CD1 mouse by 6 Hz psychomotor test
Mus musculus [20] = assay: Anticonvulsant activity in albino CD1 mouse assessed as protection against 32 mA current-induced seizure incidents at 100 mg/kg, ip after 0.5 hrs by 6 Hz psychomotor test; type: functional

Structure (SMILES) | Activity (Mus musculus [3]) | Activity (Mus musculus [4]) | Activity (Mus musculus [5]) | Activity (Mus musculus [6]) | Activity (Mus musculus [7]) | Activity (Mus musculus [8]) | other results
COC[C@@H](NC(C)=O)C(=O)NCc1ccccc1 [LACOSAMIDE] | – | – | – | – | – | – | ED50 (Mus musculus [1]): 5.2 mg/kg; Time (Mus musculus [2]): 0.5 h
O=C1CCC(=O)N1CN1CCN(c2ncccn2)CC1 | inactive | Non-Toxic | Non-Toxic | inactive | inactive | inactive | –
CN1CCN(CN2C(=O)CCC2=O)CC1 | inactive | Non-Toxic | Non-Toxic | inactive | inactive | inactive | –
CCC1(C)CC(=O)NC1=O (configuration not stated) [ETHOSUXIMIDE] | – | – | – | – | – | – | Time (Mus musculus [2]): 0.25 h
CC(C)C1CC(=O)N(CN2CCN(C3CCCCC3)CC2)C1=O (configuration not stated) | inactive | Non-Toxic | Non-Toxic | – | inactive | inactive | ED50 (Mus musculus [9]): 91.8 mg/kg; Activity (Mus musculus [10]): 100 mg/kg; TD50 [11]: < 200 mg/kg; Ratio TD50/ED50 (Mus musculus [12]): <2.17; Time (Mus musculus [2]): 0.5 h
CN1CCN(CN2C(=O)CC(C(c3ccccc3)c3ccccc3)C2=O)CC1 (configuration not stated) | – | Non-Toxic | – | inactive | – | – | Activity (Mus musculus [13]): 100 mg/kg; ED50 (Mus musculus [1]): 39.2 mg/kg; ED50 (Mus musculus [9]): 75.6 mg/kg; Activity (Mus musculus [14]): Active; Activity (Mus musculus [15]): 100%; Activity (Mus musculus [16]): 300 mg/kg; Activity (Mus musculus [17]): 300 mg/kg; Activity (Mus musculus [18]): 300 mg/kg; TD50 [11]: 247 mg/kg; Ratio TD50/ED50 (Mus musculus [12]): 3.26; Ratio TD50/ED50 (Mus musculus [19]): 6.28; Time (Mus musculus [2]): 0.5 h
CC(C)C1CC(=O)N(CN2CCN(CCO)CC2)C1=O (configuration not stated) | – | Non-Toxic | Non-Toxic | – | inactive | inactive | Activity (Mus musculus [10]): 300 mg/kg; Activity (Mus musculus [17]): 300 mg/kg
CC1CC(=O)N(CN2CCOCC2)C1=O (configuration not stated) | inactive | Non-Toxic | Non-Toxic | inactive | inactive | inactive | –
O=C1CCC(=O)N1CN1CCC(Cc2ccccc2)CC1 | inactive | Non-Toxic | Non-Toxic | inactive | inactive | inactive | –
O=C1CC(C(c2ccccc2)c2ccccc2)C(=O)N1CN1CCN(c2ncccn2)CC1 (configuration not stated) | inactive | Non-Toxic | Non-Toxic | inactive | – | inactive | Activity (Mus musculus [13]): 300 mg/kg
CC[C@@H](C(N)=O)N1CCCC1=O | – | – | – | – | – | – | TD50 [11]: > 500 mg/kg; Time (Mus musculus [2]): 1 h
O=C1CCC(=O)N1CN1CCN(CCO)CC1 | inactive | Non-Toxic | Non-Toxic | inactive | inactive | inactive | –
CC(C)C1CC(=O)N(CN2CCC(Cc3ccccc3)CC2)C1=O (configuration not stated) | inactive | Non-Toxic | Non-Toxic | inactive | inactive | inactive | –
O=C1CCC(=O)N1CN1CCN(Cc2ccccc2)CC1 | inactive | Non-Toxic | Non-Toxic | inactive | inactive | inactive | –
CC1CC(=O)N(CN2CCC(Cc3ccccc3)CC2)C1=O (configuration not stated) | inactive | Non-Toxic | Non-Toxic | inactive | inactive | inactive | –
CC(C)C1CC(=O)N(CN2CCN(C)CC2)C1=O (configuration not stated) | inactive | Non-Toxic | Non-Toxic | – | – | inactive | Activity (Mus musculus [13]): 100 mg/kg; ED50 (Mus musculus [9]): 74.9 mg/kg; Activity (Mus musculus [14]): inactive; Activity (Mus musculus [15]): inactive; Activity (Mus musculus [10]): 300 mg/kg; TD50 [11]: > 300 mg/kg; Ratio TD50/ED50 (Mus musculus [12]): >4; Time (Mus musculus [2]): 0.5 h

Structure (SMILES) | Activity (Mus musculus [3]) | Activity (Mus musculus [4]) | Activity (Mus musculus [5]) | Activity (Mus musculus [6]) | Activity (Mus musculus [7]) | Activity (Mus musculus [8]) | other results
O=C1CCC(=O)N1CN1CCOCC1 | inactive | Non-Toxic | Non-Toxic | inactive | inactive | inactive | –
CC(C)C1CC(=O)N(CN2CCOCC2)C1=O (configuration not stated) | inactive | Non-Toxic | Non-Toxic | – | inactive | inactive | Activity (Mus musculus [14]): inactive; Activity (Mus musculus [15]): inactive; Activity (Mus musculus [10]): 300 mg/kg
CC1CC(=O)N(CN2CCN(C3CCCCC3)CC2)C1=O (configuration not stated) | inactive | Non-Toxic | Non-Toxic | inactive | inactive | inactive | –
CC1CC(=O)N(CN2CCN(c3ncccn3)CC2)C1=O (configuration not stated) | inactive | Non-Toxic | Non-Toxic | inactive | inactive | inactive | –
CC(C)C1CC(=O)N(CN2CCN(c3ncccn3)CC2)C1=O (configuration not stated) | inactive | Non-Toxic | Non-Toxic | inactive | inactive | inactive | –
O=C1CC(C(c2ccccc2)c2ccccc2)C(=O)N1CN1CCN(Cc2ccccc2)CC1 (configuration not stated) | inactive | Non-Toxic | Non-Toxic | – | – | inactive | Activity (Mus musculus [13]): 100 mg/kg; Activity (Mus musculus [10]): 300 mg/kg
CC1CC(=O)N(CN2CCN(C)CC2)C1=O (configuration not stated) | inactive | Non-Toxic | Non-Toxic | inactive | inactive | inactive | –
CC1CC(=O)N(CN2CCN(Cc3ccccc3)CC2)C1=O (configuration not stated) | inactive | Non-Toxic | Non-Toxic | inactive | inactive | inactive | –
CC(C)C1CC(=O)N(CN2CCN(Cc3ccccc3)CC2)C1=O (configuration not stated) | inactive | Non-Toxic | Non-Toxic | inactive | inactive | inactive | –
O=C1CCC(=O)N1CN1CCN(C2CCCCC2)CC1 | inactive | Non-Toxic | Non-Toxic | inactive | inactive | inactive | –
O=C1CC(C(c2ccccc2)c2ccccc2)C(=O)N1CN1CCN(C2CCCCC2)CC1 (configuration not stated) | inactive | Non-Toxic | Non-Toxic | – | – | inactive | Activity (Mus musculus [13]): 300 mg/kg; Activity (Mus musculus [10]): 300 mg/kg
CC1CC(=O)N(CN2CCN(CCO)CC2)C1=O (configuration not stated) | inactive | Non-Toxic | Non-Toxic | inactive | inactive | inactive | –
O=C1CC(C(c2ccccc2)c2ccccc2)C(=O)N1CN1CCC(Cc2ccccc2)CC1 (configuration not stated) | inactive | Non-Toxic | Non-Toxic | inactive | inactive | inactive | –
CCCC(CCC)C(=O)O [VALPROIC ACID] | – | – | – | – | – | – | ED50 (Mus musculus [1]): 131 mg/kg; ED50 (Mus musculus [9]): 240 mg/kg; Time (Mus musculus [2]): 0.5 h
O=C1CC(C(c2ccccc2)c2ccccc2)C(=O)N1CN1CCN(CCO)CC1 (configuration not stated) | – | Non-Toxic | – | – | – | – | Activity (Mus musculus [13]): 100 mg/kg; ED50 (Mus musculus [1]): 51.7 mg/kg; ED50 (Mus musculus [9]): 83.1 mg/kg; Activity (Mus musculus [20]): 66%; Activity (Mus musculus [16]): 300 mg/kg; Activity (Mus musculus [10]): 100 mg/kg; Activity (Mus musculus [17]): 300 mg/kg; Activity (Mus musculus [18]): 300 mg/kg; TD50 [11]: 222 mg/kg; Ratio TD50/ED50 (Mus musculus [12]): 2.67; Ratio TD50/ED50 (Mus musculus [19]): 4.29; Time (Mus musculus [2]): 0.5 h
